Source: ChEMBL document CHEMBL3124775 (Bioorg Med Chem, 2014)

Experiments:
[1] = target: Carbonic anhydrase 12 (Homo sapiens, UniProt O43570)
Description: Inhibition of human carbonic anhydrase 12 by stopped-flow CO2 hydrase assay

[2] = target: Carbonic anhydrase 9 (Homo sapiens, UniProt Q16790)
Description: Inhibition of human carbonic anhydrase 9 by stopped-flow CO2 hydrase assay

[3] = target: Carbonic anhydrase 1 (Homo sapiens, UniProt P00915); test: Inhibition of human carbonic anhydrase 1 by stopped-flow CO2 hydrase assay
[4] = target: Carbonic anhydrase 2 (Homo sapiens, UniProt P00918); test: Inhibition of human carbonic anhydrase 2 by stopped-flow CO2 hydrase assay

Sequence of Carbonic anhydrase 12 (O43570 whole entry): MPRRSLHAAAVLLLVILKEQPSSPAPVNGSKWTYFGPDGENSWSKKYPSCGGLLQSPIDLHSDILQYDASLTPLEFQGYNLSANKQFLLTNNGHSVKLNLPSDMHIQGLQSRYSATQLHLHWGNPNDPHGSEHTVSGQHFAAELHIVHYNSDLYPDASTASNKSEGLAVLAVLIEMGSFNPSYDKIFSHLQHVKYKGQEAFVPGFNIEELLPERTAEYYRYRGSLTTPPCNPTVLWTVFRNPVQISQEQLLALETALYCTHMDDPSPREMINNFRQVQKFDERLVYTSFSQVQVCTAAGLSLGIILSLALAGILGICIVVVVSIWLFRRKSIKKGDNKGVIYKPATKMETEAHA
Sequence of Carbonic anhydrase 1 (P00915 whole entry): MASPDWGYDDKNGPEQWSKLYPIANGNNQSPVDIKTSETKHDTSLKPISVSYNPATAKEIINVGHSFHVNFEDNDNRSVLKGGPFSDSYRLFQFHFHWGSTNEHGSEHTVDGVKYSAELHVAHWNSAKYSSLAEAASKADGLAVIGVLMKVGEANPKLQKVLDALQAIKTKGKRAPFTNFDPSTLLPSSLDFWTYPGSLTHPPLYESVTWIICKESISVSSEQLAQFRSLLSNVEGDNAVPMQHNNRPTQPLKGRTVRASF

Structure (SMILES)	Ki [1]	Ki [2]	Ki [3]	Ki [4]
O=C1c2ccccc2S(=O)(=O)N1Cc1ccccc1[N+](=O)[O-]	28.1 nM	91 nM	> 50000 nM	–
O=C1c2ccccc2S(=O)(=O)N1Cc1cccc([N+](=O)[O-])c1	24.6 nM	–	> 50000 nM	–
O=C1c2ccccc2S(=O)(=O)N1Cc1cccc(Br)c1	21.1 nM	360 nM	> 50000 nM	–
O=C1c2ccccc2S(=O)(=O)N1Cc1cccc(F)c1	2690 nM	380 nM	> 50000 nM	–
O=C1c2ccccc2S(=O)(=O)N1Cc1c(F)cccc1F	1310 nM	> 50000 nM	> 50000 nM	–
O=C1c2ccccc2S(=O)(=O)N1Cc1ccc(Cl)c(Cl)c1	2760 nM	390 nM	> 50000 nM	> 50000 nM
O=C1c2ccccc2C(=O)N1CN1C(=O)c2ccccc2S1(=O)=O	13400 nM	> 50000 nM	> 50000 nM	> 50000 nM
O=C(CN1C(=O)c2ccccc2S1(=O)=O)c1ccccc1[N+](=O)[O-]	970 nM	> 50000 nM	> 50000 nM	> 50000 nM
O=C(CN1C(=O)c2ccccc2S1(=O)=O)c1cccc([N+](=O)[O-])c1	2010 nM	> 50000 nM	> 50000 nM	> 50000 nM
O=C1c2ccccc2S(=O)(=O)N1Cc1cc(-c2ccc([N+](=O)[O-])cc2)no1	–	310 nM	> 50000 nM	> 50000 nM
O=S1(=O)N=C(OCc2cccc(Br)c2)c2ccccc21	> 50000 nM	> 50000 nM	> 50000 nM	> 50000 nM
C=CCN1C(=O)c2ccccc2S1(=O)=O	94 nM	140 nM	> 50000 nM	–
CCOC(=O)CN1C(=O)c2ccccc2S1(=O)=O	76.5 nM	330 nM	> 50000 nM	–
CC(=O)CN1C(=O)c2ccccc2S1(=O)=O	440 nM	150 nM	> 50000 nM	–
C/C(CN1C(=O)c2ccccc2S1(=O)=O)=N\O (mixture of isomers)	240 nM	270 nM	> 50000 nM	–

More lines, now with the values ahead:

Ki [1]	Ki [2]	Ki [3]	Ki [4]	Structure (SMILES)
1780 nM	> 50000 nM	> 50000 nM	> 50000 nM	O=C(CN1C(=O)c2ccccc2S1(=O)=O)c1ccccc1
28.4 nM	200 nM	> 50000 nM	38.1 nM	CNC(=O)CN1C(=O)c2ccccc2S1(=O)=O
2910 nM	230 nM	> 50000 nM	1800 nM	O=C1c2ccccc2S(=O)(=O)N1CC(O)COc1ccc(Cl)cc1 (stereo unspecified)
25.1 nM	> 50000 nM	> 50000 nM	–	O=C1c2ccccc2S(=O)(=O)N1Cc1ccccc1Br
2520 nM	> 50000 nM	> 50000 nM	> 50000 nM	O=C1c2ccccc2S(=O)(=O)N1Cc1ccccc1F
2540 nM	> 50000 nM	> 50000 nM	> 50000 nM	O=C1c2ccccc2S(=O)(=O)N1Cc1cccc2ccccc12
41.9 nM	310 nM	> 50000 nM	> 50000 nM	O=C(O)CN1C(=O)c2ccccc2S1(=O)=O
250 nM	> 50000 nM	> 50000 nM	> 50000 nM	O=[N+]([O-])c1ccccc1CNS(=O)(=O)c1ccccc1CO
> 50000 nM	290 nM	> 50000 nM	–	N#CCCCN1C(=O)c2ccccc2S1(=O)=O
710 nM	290 nM	> 50000 nM	> 50000 nM	N#CCN1C(=O)c2ccccc2S1(=O)=O
570 nM	210 nM	> 50000 nM	–	C#CCN1C(=O)c2ccccc2S1(=O)=O
210 nM	97 nM	> 50000 nM	–	C/C=C/CN1C(=O)c2ccccc2S1(=O)=O
150 nM	240 nM	> 50000 nM	–	N#Cc1ccc(CN2C(=O)c3ccccc3S2(=O)=O)cc1
